Results: patent US9452986B2, “6-heteroaryloxy- or 6-aryloxy-quinoline-2-carboxamides and method of use” (AbbVie Inc., priority 2014, dated 2016)

What follows are compounds tested against recombinant human Nav1.7 (Homo sapiens (Human), UniProt Q15858) (assay: FRET-based membrane potential assay, recombinant human sodium channel Nav1.7). Conditions: HEK293 cells stably expressing recombinant human Nav1.7; veratridine + scorpion venom depolarization; read-out: FRET-Membrane Potential Nav1.7 IC50.
Type: cell-based
Protocol: FRET-Based Membrane Potential Assays.
Recombinant, Human Sodium Channel, Nav1.7.
On the day of the assay, medium was removed by aspiration, and cells were washed with assay buffer [HBSS (Invitrogen, Carlsbad, Calif.) containing 20 mM HEPES (Invitrogen, Carlsbad, Calif.)]. […] Cells were incubated for 40 minutes at room temperature in the dark. […] The cells were incubated for 90 minutes at room temperature in the dark. Fluorescence readings were made using a FLIPR®^TETRA (Molecular Devices, Sunnyvale Calif.) equipped with voltage-sensor probe optics. At the start of each experiment the optimal (EC80) concentration of depolarizing agent (veratridine) was determined by testing a dilution curve of assay buffer containing veratridine (Sigma-Aldrich, St. Louis, Mo.) and 1 mg/mL scorpion venom (SVqq, from Leiurus quinquestriatus; Sigma-Aldrich, St. Louis, Mo.). […] Test compounds in the daughter plate were diluted to (˜3×) solutions in assay buffer immediately before assaying. Using the FLIPR®^TETRA, 20 μL of the (3×) compound solutions were first added to the cells, then 20 μL of depolarizing solution (3×EC80 veratridine+SVqq) were added 3 minutes later to activate the channel. […] IC50 values were calculated from curve fits of the ratio data using a four-parameter logistic Hill equation (Accelrys Assay Explorer 3.3 Client, Accelrys, San Diego, Calif.) with percent inhibition plotted against compound concentration.

Chain of recombinant human Nav1.7 (Q15858 whole entry): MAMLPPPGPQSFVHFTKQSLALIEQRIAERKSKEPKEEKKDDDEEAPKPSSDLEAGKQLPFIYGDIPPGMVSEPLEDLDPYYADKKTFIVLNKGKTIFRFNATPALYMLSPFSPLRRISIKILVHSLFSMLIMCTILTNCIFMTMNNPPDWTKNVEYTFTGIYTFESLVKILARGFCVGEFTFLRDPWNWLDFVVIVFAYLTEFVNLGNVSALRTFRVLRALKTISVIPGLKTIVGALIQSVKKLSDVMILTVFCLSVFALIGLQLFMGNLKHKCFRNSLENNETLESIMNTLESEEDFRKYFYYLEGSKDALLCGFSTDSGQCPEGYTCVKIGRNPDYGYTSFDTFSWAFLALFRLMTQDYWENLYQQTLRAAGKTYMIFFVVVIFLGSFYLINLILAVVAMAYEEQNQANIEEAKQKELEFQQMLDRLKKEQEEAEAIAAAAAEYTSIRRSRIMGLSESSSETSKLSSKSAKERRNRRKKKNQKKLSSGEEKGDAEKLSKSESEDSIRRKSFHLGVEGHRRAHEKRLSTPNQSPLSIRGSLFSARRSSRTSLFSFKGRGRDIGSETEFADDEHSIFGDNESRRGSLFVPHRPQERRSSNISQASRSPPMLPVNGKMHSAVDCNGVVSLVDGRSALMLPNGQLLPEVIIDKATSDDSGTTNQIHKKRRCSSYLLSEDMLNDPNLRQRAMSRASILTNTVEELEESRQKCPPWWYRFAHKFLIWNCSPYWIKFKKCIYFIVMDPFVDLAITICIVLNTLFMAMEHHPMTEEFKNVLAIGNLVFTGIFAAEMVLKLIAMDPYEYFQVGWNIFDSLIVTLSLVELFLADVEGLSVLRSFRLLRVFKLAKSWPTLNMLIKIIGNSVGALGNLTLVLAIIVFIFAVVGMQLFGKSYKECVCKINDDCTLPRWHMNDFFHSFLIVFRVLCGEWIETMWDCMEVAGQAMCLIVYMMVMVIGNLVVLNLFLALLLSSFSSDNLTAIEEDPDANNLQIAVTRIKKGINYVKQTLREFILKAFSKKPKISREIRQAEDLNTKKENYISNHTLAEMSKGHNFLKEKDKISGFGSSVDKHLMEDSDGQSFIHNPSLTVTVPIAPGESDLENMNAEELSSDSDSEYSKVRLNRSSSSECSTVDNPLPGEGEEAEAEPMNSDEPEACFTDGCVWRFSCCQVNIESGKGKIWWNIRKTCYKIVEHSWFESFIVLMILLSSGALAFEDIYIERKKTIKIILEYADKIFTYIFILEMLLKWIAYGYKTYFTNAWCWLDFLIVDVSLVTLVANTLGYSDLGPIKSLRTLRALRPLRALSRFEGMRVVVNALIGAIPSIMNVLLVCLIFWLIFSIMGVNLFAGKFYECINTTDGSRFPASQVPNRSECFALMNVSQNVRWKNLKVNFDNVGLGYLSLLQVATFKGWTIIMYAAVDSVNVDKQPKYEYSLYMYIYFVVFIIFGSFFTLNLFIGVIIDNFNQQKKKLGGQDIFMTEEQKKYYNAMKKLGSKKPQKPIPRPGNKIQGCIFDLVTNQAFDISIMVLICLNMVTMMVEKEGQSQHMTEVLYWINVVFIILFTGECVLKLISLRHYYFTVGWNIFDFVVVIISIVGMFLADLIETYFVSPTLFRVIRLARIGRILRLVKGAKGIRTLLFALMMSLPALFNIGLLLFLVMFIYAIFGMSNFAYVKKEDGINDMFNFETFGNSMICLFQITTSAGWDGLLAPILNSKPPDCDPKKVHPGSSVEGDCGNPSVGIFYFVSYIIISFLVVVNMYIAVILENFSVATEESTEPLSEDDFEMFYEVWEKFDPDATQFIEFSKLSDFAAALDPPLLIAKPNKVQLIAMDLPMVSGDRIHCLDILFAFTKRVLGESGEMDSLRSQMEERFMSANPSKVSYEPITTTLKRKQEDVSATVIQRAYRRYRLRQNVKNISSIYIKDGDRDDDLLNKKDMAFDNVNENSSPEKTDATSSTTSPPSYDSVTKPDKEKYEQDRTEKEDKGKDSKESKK

Compound	IC50
N#Cc1ccc(Oc2ccc3nc(C(=O)N[C@@H]4CCOc5ccc(F)cc54)ccc3c2)cc1 [Example 139, 6-(4-cyanophenoxy)-N-[(4R)-6-fluoro-3,4-dihydro-2H-chromen-4-yl]quinoline-2-carboxamide]	> 20 µM
CC(C)(C)N1CCN(C(=O)c2ccc3cc(Oc4ccc(C#N)cc4)ccc3n2)CC1 [Example 140, 4-({2-[(4-tert-butylpiperazin-1-yl)carbonyl]quinolin-6-yl}oxy)benzonitrile]	0.559 µM
CC1(C)C[C@@H](NC(=O)c2ccc3cc(Oc4ccc(C#N)cc4)ccc3n2)c2cc(F)ccc2O1 [Example 141, 6-(4-cyanophenoxy)-N-[(4R)-6-fluoro-2,2-dimethyl-3,4-dihydro-2H-chromen-4-yl]quinoline-2-carboxamide]	> 20 µM
CC(C)[C@H]1CN(C(=O)c2ccc3cc(Oc4ccc(C#N)cc4)ccc3n2)CCN1 [Example 142, 4-[(2-{[(3S)-3-isopropylpiperazin-1-yl]carbonyl}quinolin-6-yl)oxy]benzonitrile]	0.766 µM
CN1CCC(NC(=O)c2ccc3cc(Oc4ccc(C#N)cc4)ccc3n2)C1=O (stereo not shown) [Example 143, 6-(4-cyanophenoxy)-N-(1-methyl-2-oxopyrrolidin-3-yl)quinoline-2-carboxamide]	1.08 µM
N#Cc1ccc(Oc2ccc3nc(C(=O)NCc4ncco4)ccc3c2)cc1 [Example 144, 6-(4-cyanophenoxy)-N-(1,3-oxazol-2-ylmethyl)quinoline-2-carboxamide]	0.832 µM
CNC(=O)CNC(=O)c1ccc2cc(Oc3ccc(C#N)cc3)ccc2n1 [Example 145, 6-(4-cyanophenoxy)-N-[2-(methylamino)-2-oxoethyl]quinoline-2-carboxamide]	3.09 µM
N#Cc1ccc(Oc2ccc3nc(C(=O)NCC(N)=O)ccc3c2)cc1 [Example 146, N-(2-amino-2-oxoethyl)-6-(4-cyanophenoxy)quinoline-2-carboxamide]	8.03 µM
N#Cc1ccc(Oc2ccc3nc(C(=O)NCCS(N)(=O)=O)ccc3c2)cc1 [Example 147, 6-(4-cyanophenoxy)-N-(2-sulfamoylethyl)quinoline-2-carboxamide]	4.28 µM
N#Cc1ccc(Oc2ccc3nc(C(=O)N4CCS(=O)(=O)CC4)ccc3c2)cc1 [Example 148, 4-({2[(1,1-dioxidothiomorpholin-4-yl)carbonyl]quinolin-6-yl}oxy)benzonitrile]	12.1 µM
NC(=O)CNC(=O)c1ccc2cc(Oc3ccc(C(F)(F)F)cn3)ccc2n1 [Example 150, N-(2-amino-2-oxoethyl)-6-{[5-(trifluoromethyl)pyridin-2-yl]oxy}quinoline-2-carboxamide]	2.28 µM
O=C(NCc1ccccn1)c1ccc2cc(Oc3ccc(C(F)(F)F)cn3)ccc2n1 [Example 151, N-(pyridin-2-ylmethyl)-6-{[5-(trifluoromethyl)pyridin-2-yl]oxy}quinoline-2-carboxamide]	0.792 µM
O=C(NC1CCS(=O)(=O)C1)c1ccc2cc(Oc3ncc(C(F)(F)F)cc3Cl)ccc2n1 (stereo not shown) [Example 154, 6-{[3-chloro-5-(trifluoromethyl)pyridin-2-yl]oxy}-N-(1,1-dioxidotetrahydrothiophen-3-yl)quinoline-2-carboxamide]	2.32 µM
O=C(c1ccc2cc(Oc3ccc(C(F)(F)F)cn3)ccc2n1)N1CC2(CNC2)C1 [Example 157, 2,6-diazaspiro[3.3]hept-2-yl(6-{[5-(trifluoromethyl)pyridin-2-yl]oxy}quinolin-2-yl)methanone]	> 20 µM
N#Cc1ccc(Oc2ccc3nc(C(=O)NC4CCS(=O)(=O)C4)ccc3c2)nc1 (stereo not shown) [Example 158, 6-[(5-cyanopyridin-2-yl)oxy]-N-(1,1-dioxidotetrahydrothiophen-3-yl)quinoline-2-carboxamide]	> 20 µM
Cc1cc(C)nc(Oc2ccc3nc(C(=O)NC4CCS(=O)(=O)C4)ccc3c2)n1 (stereo not shown) [Example 162, 6-[(4,6-dimethylpyrimidin-2-yl)oxy]-N-(1,1-dioxidotetrahydrothiophen-3-yl)quinoline-2-carboxamide]	> 20 µM
Cc1ccnc(Oc2ccc3nc(C(=O)NC4CCS(=O)(=O)C4)ccc3c2)n1 (stereo not shown) [Example 163, N-(1,1-dioxidotetrahydrothiophen-3-yl)-6-[(4-methylpyrimidin-2-yl)oxy]quinoline-2-carboxamide]	> 20 µM
O=C(c1ccc2cc(Oc3ccc(C(F)(F)F)cn3)ccc2n1)N1C[C@H]2CNC[C@H]2C1 [Example 164, (3 aR,6aS)-hexahydropyrrolo[3,4-c]pyrrol-2(1H)-yl(6-{[5-(trifluoromethyl)pyridin-2-yl]oxy}quinolin-2-yl)methanone]	12.7 µM
O=C(NC1CCS(=O)(=O)C1)c1ccc2cc(Oc3ccc(Cl)nn3)ccc2n1 (stereo not shown) [Example 165, 6-[(6-chloropyridazin-3-yl)oxy]-N-(1,1-dioxidotetrahydrothiophen-3-yl)quinoline-2-carboxamide]	> 20 µM
O=C1NC[C@@H]2CN(C(=O)c3ccc4cc(Oc5ccc(C(F)(F)F)cn5)ccc4n3)C[C@H]12 [Example 166, (3 aR,6aR)-5-[(6-{[5-(trifluoromethyl)pyridin-2-yl]oxy}quinolin-2-yl)carbonyl]hexahydropyrrolo[3,4-c]pyrrol-1(2H)-one]	11.1 µM
O=C(NC1CCS(=O)(=O)C1)c1ccc2cc(Oc3ccc(C(F)(F)F)nn3)ccc2n1 (stereo not shown) [Example 168, N-(1,1-dioxidotetrahydrothiophen-3-yl)-6-{[6-(trifluoromethyl)pyridazin-3-yl]oxy}quinoline-2-carboxamide]	> 20 µM
O=C1NCCN2CCN(C(=O)c3ccc4cc(Oc5ccc(C(F)(F)F)cn5)ccc4n3)CC12 (stereo not shown) [Example 169, 8-[(6-{[5-(trifluoromethyl)pyridin-2-yl]oxy}quinolin-2-yl)carbonyl]hexahydro-2H-pyrazino[1,2-a]pyrazin-1(6H)-one]	17.2 µM
O=C(c1ccc2cc(Oc3ccc(C(F)(F)F)cn3)ccc2n1)N1CCn2cnnc2C1 [Example 170, 5,6-dihydro[1,2,4]triazolo[4,3-a]pyrazin-7(8H)-yl(6-{[5-(trifluoromethyl)pyridin-2-yl]oxy}quinolin-2-yl)methanone]	8.87 µM
O=C1NCC(=O)N2CCN(C(=O)c3ccc4cc(Oc5ccc(C(F)(F)F)cn5)ccc4n3)CC12 (stereo not shown) [Example 171, 8-[(6-{[5-(trifluoromethyl)pyridin-2-yl]oxy}quinolin-2-yl)carbonyl]tetrahydro-2H-pyrazino[1,2-a]pyrazine-1,4(3H,6H)-dione]	7.95 µM
O=C1CN(C(=O)c2ccc3cc(Oc4ccc(C(F)(F)F)cn4)ccc3n2)CCN1 [Example 172, 4-[(6-{[5-(trifluoromethyl)pyridin-2-yl]oxy}quinolin-2-yl)carbonyl]piperazin-2-one]	10.5 µM
O=C(c1ccc2cc(Oc3ccc(C(F)(F)F)cn3)ccc2n1)N1CCn2cncc2C1 [Example 173, 5,6-dihydroimidazo[1,5-a]pyrazin-7(8H)-yl(6-{[5-(trifluoromethyl)pyridin-2-yl]oxy}quinolin-2-yl)methanone]	0.833 µM
O=C(NCCN1CCCC1)c1ccc2cc(Oc3ccc(C(F)(F)F)cn3)ccc2n1 [Example 174, N-[2-(pyrrolidin-1-yl)ethyl]-6-{[5-(trifluoromethyl)pyridin-2-yl]oxy}quinoline-2-carboxamide]	0.294 µM
O=C(NCCN1CCCCC1)c1ccc2cc(Oc3ccc(C(F)(F)F)cn3)ccc2n1 [Example 175, N-[2-(piperidin-1-yl)ethyl]-6-{[5-(trifluoromethyl)pyridin-2-yl]oxy}quinoline-2-carboxamide]	0.206 µM

Same assay, conditions: read-out: FRET-Membrane Potential Nav1.7 IC50

Compound	IC50
O=C(c1ccc2cc(Oc3cccc(C(F)(F)F)n3)ccc2n1)N1CCNCC1 [Example 153, piperazin-1-yl(6-{[6-(trifluoromethyl)pyridin-2-yl]oxy}quinolin-2-yl)methanone]	3.3 µM
O=C(NC1CCS(=O)(=O)C1)c1ccc2cc(Oc3ncc(C(F)(F)F)cn3)ccc2n1 (stereo not shown) [Example 155, N-(1,1-dioxidotetrahydrothiophen-3-yl)-6-{[5-(trifluoromethyl)pyrimidin-2-yl]oxy}quinoline-2-carboxamide]	5.38 µM
O=C(c1ccc2cc(Oc3ccc(C(F)(F)F)cn3)ccc2n1)N1CC2(COC2)C1 [Example 156, 2-oxa-6-azaspiro[3.3]hept-6-yl(6-{[5-(trifluoromethyl)pyridin-2-yl]oxy}quinolin-2-yl)methanone]	> 20 µM
N#Cc1ccc(Oc2ccc3nc(C(=O)N[C@H]4CCS(=O)(=O)C4)ccc3c2)cc1 [Example 159, 6-(4-cyanophenoxy)-N-[(3S)-1,1-dioxidotetrahydrothiophen-3-yl]quinoline-2-carboxamide]	0.73 µM
N#Cc1ccc(Oc2ccc3nc(C(=O)N[C@@H]4CCS(=O)(=O)C4)ccc3c2)cc1 [Example 160, 6-(4-cyanophenoxy)-N-[(3R)-1,1-dioxidotetrahydrothiophen-3-yl]quinoline-2-carboxamide]	0.71 µM
Cc1cnc(Oc2ccc3nc(C(=O)NC4CCS(=O)(=O)C4)ccc3c2)nc1 (stereo not shown) [Example 161, N-(1,1-dioxidotetrahydrothiophen-3-yl)-6-[(5-methylpyrimidin-2-yl)oxy]quinoline-2-carboxamide]	> 20 µM
